One compound from patent publication US7595300B2, “7-quinolyl ketolide antibacterial agents” (priority 2005, dated 2009) can be followed below.

For one series, the system named is P. acnes. In words: MIC, NCCLS Reference Agar Dilution Method for anaerobic bacteria. It is filed as cell-based, Propionibacterium acnes. Here is the method: Minimum inhibitory concentrations (“MICs”) were determined by the NCCLS Reference Agar Dilution Method (M11-A5, Vol. 21, No. 2) for anaerobic bacteria. A panel of 84 antibiotic-susceptible and resistant strains of Propionibacteria from distinct geographic locations were selected. Following revival from frozen stocks, each strain was purity plated onto Wilkins Chalgren Agar, pH 7.2 (Oxoid, UK), and the appropriate antibiotic resistance/susceptibility phenotype was confirmed by antibiotic disc testing. Each strain was subjected to an agar dilution MIC assay. […] The inocula for each batch of strains were prepared from 7-day old Wilkins Chalgren Agar plate cultures by resuspension of colonies in Wilkins Chalgren Anaerobe broth, pH 7.2 (Oxoid, UK) to an optical density (OD600) of 0.2±0.02. The inoculum (1.0-2.0 μL) for each strain was applied to a Wilkins Chalgren Agar MIC plate in a grid pattern using a Multipoint Inoculator (Denley, UK). All agar plates were incubated at 37° C. for 3 days under anaerobic conditions in AnaeroPack 7 liter rectangular jars (Mitsubishi Gas Chemical Company, Inc., Japan).

The nature of series [1]: Skin penetration of topical formulations, Franz static diffusion cells. Format: in vitro ADME, human. The note with it: first experiment, dibutyl sebacate. On the procedure: The penetration of compound (III) formulated in various vehicles into human skin was determined. Franz static diffusion cells (15 mm diameter orifice, o-ring joint) were mounted on 9-cell manifolds and maintained at a constant temperature by use of re-circulating water baths set at 32° C. These cells have an opening with a nominal area of 1.77 cm^2 and a receptor compartment with a volume ranging between 12 to 14 ml. Each diffusion cell was assembled by placing a disk shaped section of excised human skin (obtained from elective surgery) over the orifice of the receptor (bottom) compartment. A Teflon® O-ring was placed on top of the skin before the donor cap was added (top compartment). This diffusion area was then secured in place by a pinch clamp, ensuring an adequate seal between the donor and receptor compartments. The joint between the donor and receptor compartments of each cell was wrapped with Parafilm® (American Can Company) to prevent evaporation of the receptor phase. Each cell was then filled with the receptor phase consisting of phosphate buffered saline with 0.1% sodium azide and 4% bovine serum albumin (w/w/w) at 32° C. Any air bubbles present under the tissue were removed prior to dosing. […]
Approximately 10 mg/cm^2 of each formulation was dosed onto the tissue surfaces of five cells. […] Samples were analyzed for drug content by LC/MS-MS. […]

The structures appear in SMILES notation. ≈ marks a conversion by molar mass, not a printed value.

`CC1CC(N(C)C)C(O)C(O[C@@H]2[C@@H](C)C(=O)[C@](C)(F)C(=O)O[C@H](CCF)[C@@]3(C)OC(=O)N[C@@H]3[C@@H](C)C(=O)[C@H](C)C[C@@]2(C)OC/C=C/c2ccc3cccnc3c2)O1` (some centres unmarked) [Compound (III), 6-O-(1-(7-quinolyl)-3-propenyl)-11-amino-11-deoxy-3-(descladinosyl)-3-oxo-2,15-difluoroerythromycin A-11,12-cyclic carbamate]: the MIC range against P. acnes (marker RNA 1058, phenotype TetR) is 0.06 to 1 µg/mL; in the series on P. acnes (marker RNA 1058/2058, phenotype TetR, EryR), 1 to 2 µg/mL; in the series with P. acnes (marker RNA 1058/2059, phenotype TetR, EryR), 0.5 µg/mL (≈ 0.623 µM); in the series on P. acnes (marker RNA 2057, phenotype EryR), 0.06 µg/mL (≈ 0.0748 µM); against P. acnes (marker RNA 2058, phenotype EryR), 0.125 to 2 µg/mL; against P. acnes (marker RNA 2058, phenotype EryR, TetR), 0.06 to 1 µg/mL. Moreover, the MIC range was 0.125 to 2 µg/mL in the series with P. acnes (marker RNA 2059, phenotype EryR); 32 to 128 µg/mL in the series with P. acnes (marker ermX, phenotype EryR); 0.06 µg/mL (≈ 0.0748 µM) against P. acnes (marker none, phenotype none); 0.06 µg/mL (≈ 0.0748 µM) against P. acnes (marker unknown, phenotype ClindR). In series [1], the Highest dermal penetration was 5.7 % of applied dose.
